In PubChem BioAssay (NCI):
Where “and” joins values, the source holds several entries; their conditions need not be identical. Identical values can stand only once.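 Briefly, cells in 96-well plates were exposed to five compound concentrations for 48 h, and endpoints were estimated by linear interpolation. Abbreviation: GI50, concentration required for 50% inhibition of growth. TGI: concentration producing complete growth inhibition.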

Key:
Assay in all cases: inhibition of tumour cell growth, NCI panel, 48 h
[1] = system: EKVX NSCLC
[2] = system: PC-3 prostate
[3] = system: SK-MEL-5 melanoma
[4] = system: SNB-19 CNS
[5] = system: UACC-62 melanoma
[6] = system: HT29 colon
[7] = system: 786-0 renal
[8] = system: SF-268 CNS
[9] = system: OVCAR-5 ovarian
[10] = system: NCI-H522 lung

SMILES: C=CC(=O)Nc1ccc(Nc2nccc(-c3ccc(N4CCCC4)c(C#N)c3)n2)cc1
- GI50 [1]: > 25 µM
- TGI [1]: > 25 µM
- GI50 [2]: 20.9 µM
- TGI [2]: > 25 µM
- GI50 [3]: 17.9 µM
- TGI [3]: > 25 µM
- GI50 [4]: > 25 µM
- TGI [4]: > 25 µM
- GI50 [5]: > 25 µM
- TGI [5]: > 25 µM
- GI50 [6]: > 25 µM
- TGI [6]: > 25 µM
- GI50 [7]: 0.663 µM
- TGI [7]: 3.87 µM
- GI50 [8]: 15.8 µM
- TGI [8]: > 25 µM
- GI50 [9]: > 25 µM
- TGI [9]: > 25 µM
- GI50 [10]: 9.97 µM
- TGI [10]: > 25 µM

SMILES: O=C(c1ccccc1)c1c(NCC(O)CN2CCCC2)n(Cc2ccccc2)c(=O)n(Cc2ccccc2)c1=O (centres undefined)
- GI50 [1]: 19.6 µM
- TGI [1]: 49.1 µM
- GI50 [2]: 17.5 µM
- TGI [2]: 36.6 µM
- GI50 [3]: 12.5 µM
- TGI [3]: 25 µM
- GI50 [4]: 63.4 µM
- TGI [4]: > 100 µM
- GI50 [5]: 17.4 µM
- TGI [5]: 33.2 µM
- GI50 [6]: 17.3 µM
- TGI [6]: 33.6 µM
- GI50 [7]: 18.9 µM
- TGI [7]: 35.5 µM
- GI50 [8]: 19.6 µM
- TGI [8]: 40.8 µM
- GI50 [9]: 29.7 µM
- TGI [9]: 82 µM
- GI50 [10]: 19.8 µM
- TGI [10]: 35.6 µM

SMILES: Cc1[nH]ncc1-c1cc2nc(C3CC4CCN3CC4)[nH]c(=O)c2s1 (centres undefined)
- GI50 [1]: 4.3 µM
- TGI [1]: 90.2 µM
- GI50 [2]: 4.13 µM
- TGI [2]: > 100 µM
- GI50 [3]: 2.77 µM
- TGI [3]: 52.9 µM
- GI50 [4]: 4.78 µM
- TGI [4]: > 100 µM
- GI50 [5]: 3.28 µM
- TGI [5]: 17.6 µM
- GI50 [6]: 3.85 µM
- TGI [6]: > 100 µM
- GI50 [7]: 2.92 µM
- TGI [7]: > 100 µM
- GI50 [8]: 3.8 µM
- TGI [8]: > 100 µM
- GI50 [9]: 3.33 µM
- TGI [9]: > 100 µM
- GI50 [10]: 2.75 µM
- TGI [10]: 39.4 µM

SMILES: COc1ccc(-c2[nH]ncc2-c2cc3c(c(OC)c2)OCC(=O)N3)cc1
- GI50 [1]: 0.675 µM
- TGI [1]: > 33.7 µM
- GI50 [2]: 0.538 µM
- TGI [2]: > 100 µM
- GI50 [3]: 0.595 µM
- TGI [3]: 12.8 µM
- GI50 [4]: 0.619 µM
- TGI [4]: > 100 µM
- GI50 [5]: 0.621 µM
- TGI [5]: 20.8 µM
- GI50 [6]: 0.378 µM
- TGI [6]: > 100 µM
- GI50 [7]: 1.21 µM
- TGI [7]: > 100 µM
- GI50 [8]: 0.935 µM
- TGI [8]: > 100 µM
- GI50 [9]: 2.17 µM
- TGI [9]: > 100 µM
- GI50 [10]: 0.247 µM
- TGI [10]: 6.33 µM

SMILES: O=C(/C=C/c1ccc(B(O)O)cc1)/C=C/c1ccc(B(O)O)cc1
- GI50 [2]: 3.31 µM
- TGI [2]: 14.3 µM
- GI50 [3]: 1.94 µM
- TGI [3]: 4.47 µM
- GI50 [4]: 6.09 µM
- TGI [4]: 21.2 µM
- GI50 [5]: 1.73 µM
- TGI [5]: 4.41 µM
- GI50 [6]: 1.82 µM
- TGI [6]: 3.95 µM
- GI50 [7]: 2.16 µM
- TGI [7]: 5.57 µM
- GI50 [8]: 3.39 µM
- TGI [8]: 12.1 µM
- GI50 [9]: 4.4 µM
- TGI [9]: 20.3 µM
- GI50 [10]: 4.07 µM
- TGI [10]: 15.7 µM

SMILES: CCCN(CCC)CCCNCc1cc(I)cc(C)c1O
- GI50 [1]: 15.8 µM
- TGI [1]: 33.7 µM
- GI50 [2]: 15.1 µM
- TGI [2]: 28.4 µM
- GI50 [3]: 6.83 µM
- TGI [3]: 19.3 µM
- GI50 [4]: 18.2 µM
- TGI [4]: 40.8 µM
- GI50 [5]: 5.54 µM
- TGI [5]: 18.6 µM
- GI50 [6]: 7.21 µM
- TGI [6]: 20 µM
- GI50 [7]: 13.6 µM
- TGI [7]: 26.4 µM
- GI50 [8]: 15.9 µM
- TGI [8]: 29.4 µM
- GI50 [9]: 18.5 µM
- TGI [9]: 43.7 µM
- GI50 [10]: 16.9 µM
- TGI [10]: 31.1 µM

SMILES: Cc1ccc(C(=O)N(CCCN)[C@@H](c2nc3cc(Cl)ccc3c(=O)n2Cc2ccccc2)C(C)C)cc1
- GI50 [1]: < 0.01 µM
- TGI [1]: 2.22 µM and 1.64 µM
- GI50 [2]: < 0.01 µM
- TGI [2]: 2.32 µM and 1.76 µM
- GI50 [3]: < 0.01 µM
- TGI [3]: 1.35 µM and 1.46 µM
- GI50 [4]: < 0.01 µM
- TGI [4]: 2.12 µM and 1.9 µM
- GI50 [5]: < 0.01 µM
- TGI [5]: 1.91 µM and 1.57 µM
- GI50 [6]: < 0.01 µM
- TGI [6]: 1.03 µM and 1.49 µM
- GI50 [7]: < 0.01 µM
- TGI [7]: 2.08 µM and 1.98 µM
- TGI [8]: 1.97 µM and 2.35 µM
- GI50 [9]: < 0.01 µM
- TGI [9]: 2.02 µM and 1.74 µM
- GI50 [10]: < 0.01 µM

SMILES: COc1cc(/C(Cl)=C/C=C/C(=O)c2c(C)[n+]([O-])c3ccc(Cl)cc3[n+]2[O-])cc(OC)c1OC
- GI50 [1]: 14.2 µM
- TGI [1]: > 50 µM
- GI50 [2]: 3.58 µM
- TGI [2]: > 50 µM
- GI50 [3]: 9.44 µM
- TGI [3]: > 50 µM
- GI50 [4]: 15 µM
- TGI [4]: > 50 µM
- GI50 [5]: 3.42 µM
- TGI [5]: 27.1 µM
- GI50 [6]: 2.07 µM
- TGI [6]: 9.1 µM
- GI50 [7]: 4.62 µM
- TGI [7]: > 50 µM
- GI50 [8]: 5.54 µM
- TGI [8]: 14.2 µM
- GI50 [9]: 13 µM
- TGI [9]: 33.2 µM
- GI50 [10]: 1.38 µM
- TGI [10]: 4.23 µM

SMILES: CC(C)[C@](O)(c1ccc2cc(OC(F)F)c(OC(F)F)cc2c1)c1cn[nH]n1
- GI50 [1]: 14 µM and 13.6 µM
- TGI [1]: 44.8 µM and 39.9 µM
- GI50 [2]: 17.5 µM and 14.2 µM
- TGI [2]: 35.4 µM and 33.4 µM
- GI50 [3]: 17.1 µM and 16.9 µM
- TGI [3]: 30.9 µM and 30.7 µM
- GI50 [4]: 22 µM and 15.7 µM
- TGI [4]: 51 µM and 41.8 µM
- GI50 [5]: 20.1 µM and 13 µM
- TGI [5]: 39.6 µM and 29.8 µM
- GI50 [6]: 16 µM and 20.8 µM
- TGI [6]: 36.3 µM and 46.6 µM
- GI50 [7]: 17.8 µM and 16.9 µM
- TGI [7]: 39.4 µM and 39.9 µM
- GI50 [8]: 18.7 µM and 14.4 µM
- TGI [8]: 50.3 µM and 34.6 µM
- GI50 [9]: 21.7 µM and 22.9 µM
- TGI [9]: 65.1 µM and 64.9 µM
- GI50 [10]: 16.4 µM and 14.8 µM
- TGI [10]: 36.5 µM and 35.4 µM

SMILES: Cc1ccc(NCCCN2CCN(CCCNc3ccc(C)c4sc5ccccc5c(=O)c34)CC2)c2c(=O)c3ccccc3sc12
- TGI [1]: > 100 µM
- TGI [2]: > 100 µM
- TGI [3]: > 100 µM
- TGI [4]: > 100 µM
- TGI [5]: > 100 µM
- TGI [6]: > 100 µM
- TGI [7]: > 100 µM
- TGI [8]: > 100 µM
- TGI [9]: > 100 µM
- TGI [10]: > 100 µM

SMILES: Cc1c2cnccc2c(C)c2c1c1cc(C3OCCCO3)ccc1n2C
- GI50 [1]: 0.451 µM
- TGI [1]: 2.56 µM
- GI50 [2]: 0.402 µM
- TGI [2]: 2.24 µM
- GI50 [3]: 0.379 µM
- TGI [3]: 1.44 µM
- GI50 [4]: 0.295 µM
- TGI [4]: 2.97 µM
- GI50 [5]: 0.197 µM
- TGI [5]: 0.747 µM
- GI50 [6]: 0.363 µM
- TGI [6]: 2.12 µM
- GI50 [7]: 0.457 µM
- TGI [7]: 3.25 µM
- GI50 [8]: 0.268 µM
- TGI [8]: 1.71 µM
- GI50 [9]: 0.436 µM
- TGI [9]: 3.7 µM
- GI50 [10]: 0.466 µM
- TGI [10]: 2.48 µM

SMILES: CCSc1nnc2c(-c3ccccc3)n[nH]c2n1
- TGI [1]: > 100 µM
- TGI [2]: > 100 µM
- TGI [3]: > 100 µM
- TGI [4]: > 100 µM
- TGI [5]: > 100 µM
- TGI [6]: > 100 µM
- TGI [7]: > 100 µM
- TGI [8]: > 100 µM
- TGI [9]: > 100 µM
- TGI [10]: > 100 µM

SMILES: O=P([O-])(O)OP(=O)([O-])O.[NH-][C@H]1CCCC[C@@H]1[NH-].[OH-].[OH-].[Pt+4]
- GI50 [1]: 25.3 µM
- TGI [1]: 68.3 µM
- GI50 [2]: 25.2 µM
- TGI [2]: 68.2 µM
- GI50 [3]: 42.3 µM
- TGI [3]: > 100 µM
- GI50 [4]: 21.7 µM
- TGI [4]: 49.7 µM
- GI50 [5]: 22 µM
- TGI [5]: 92.2 µM
- GI50 [6]: 59.6 µM
- TGI [6]: > 100 µM
- GI50 [7]: 29.5 µM
- TGI [7]: 76.2 µM
- GI50 [8]: 20.9 µM
- TGI [8]: 46.8 µM
- GI50 [9]: 26.3 µM
- TGI [9]: 63.2 µM
